Laboratory results reported in US5707620A (priority 1995, dated 1998).
“Also recorded” adds a separate entry of the source. *1 amine or outer side, *2 acyl side, *3 side chain or, on linkers, in order; H or OH if unused. Where a SMILES comes first, the peptide text is derived from it. Where no end group is shown, it is not given here. [ ]: non-standard residue; d: D form. The star is where a group is joined. pNA = O=[N+]([O-])c1ccc(N*)cc1; Tos = Cc1ccc(S(=O)(=O)*)cc1; CO = O=C([*:1])[*:2]

Assays:
[1] = tested on: Human plasma; conditions: in vivo
[2] = biological target: T1, Lys-gingipain (Porphyromonas gingivalis, UniProt B2RLK2, A715G/D467N/G568E/I573V/L455V); format: biochemical
[3] = tested on: Arg-gingipain; format: biochemical, Porphyromonas gingivalis
[4] = tested on: Arg-gingipain; conditions: cited from earlier work
[5] = biological target: T1, Lys-gingipain; format: biochemical; remark: listed apart in the source
[6] = tested on: sheep red blood cells; format: cell-based
[7] = biological target: T1, Lys-gingipain; format: biochemical; remark: listed apart in the source
[8] = tested on: anti-protein antibodies; conditions: rabbit, in vivo
[9] = tested on: anti-peptide antibody; conditions: rabbit, in vivo

## c1cnc2c(c1)ccc1cccnc12
[1]
  effect on VPE by Lys-gingipain complex-treated human plasma: increased

## CC(C)[C@H](NC(=O)[C@H](CCCNC(=N)N)NC(=O)N[C@@H](Cc1ccccc1)C(=O)O)C(=O)N[C@H](C=O)CCCNC(=N)N [Antipain] ({Phe-CO}-Arg-Val-Arg-aldehyde)
[2]
  % Activity: 98%
  inhibition of Lys-gingipain activity (in words): failed to inhibit; also recorded: not sensitive to inhibition; also recorded: resistant to inhibition
[3]
  inhibition of Arg-gingipain (in words): effective inhibitors

## CC(C)C[C@H](NC(=O)[C@H]1O[C@@H]1C(=O)O)C(=O)NCCCCN=C(N)N [E-64, trans-epoxysuccinyl-L-leucylamide-(4-guanidino) butane]
[4]
  inhibition of Arg-gingipain, previously shown: inhibit Arg-gingipain, but not in the normal equimolar manner
[2]
  % Activity: 100%
  inhibition of Lys-gingipain activity (in words): failed to inhibit Lys-gingipain at all; also recorded: not sensitive to inhibition; also recorded: resistant to inhibition

## O=C(O)CN(CCN(CC(=O)O)CC(=O)O)CC(=O)O [EDTA, ethylenediamine-tetraacetic acid]
[2]
  % Activity: 90%
  inhibition of Lys-gingipain activity (in words): failed to inhibit; also recorded: not sensitive to inhibition; also recorded: resistant to inhibition; also recorded: insensitive
[3]
  inhibition of Arg-gingipain (in words): effective inhibitors

## NC(N)=NCCCC(NC(=O)C1CCCN1C(=O)C(N)Cc1ccccc1)C(=O)CCl (stereo not drawn) [FPRCK, Phe-Pro-Arg-CK]
[2]
  % Activity: 5%
  inhibition of Lys-gingipain activity (in words): effective inhibitors of both enzymes; also recorded: sensitivity
[3]
  inhibition of Arg-gingipain (in words): effective inhibitors of both enzymes

## NCC(=O)NCC(=O)O [Gly--Gly, Glycyl-glycine] (H-Gly-Gly-OH)
[2]
  % Activity: 50%
  inhibition of Lys-gingipain activity (in words): inhibitory; also recorded: inhibited
[3]
  stimulation of hydrolysis of Bz-L-Arg-pNa by Arg-gingipain: strongly stimulates

## CC(C)C[C@H](NC(=O)[C@H](N)C(C)C)C(=O)N[C@@H](CCCCN)C(=O)Nc1ccc([N+](=O)[O-])cc1 [HD--Val--Leu--Lys--pNa, D-Val-Leu-Lys-pNA] (H-[dV]-Leu-Lys-pNA)
[5]
  Vmax: 133 mmol/min

## CC(C)[C@@H](N)C(=O)N[C@@H](Cc1ccccc1)C(=O)N[C@@H](CCCCN)C(=O)Nc1ccc([N+](=O)[O-])cc1 [HD--Val--Phe--Lys--pNa, H-D-Val-Phe-Lys-pNa] (H-[dV]-Phe-Lys-pNA)
[5]
  Vmax: 180 mmol/min

## NC(=O)CI [Iodoacetamide]
[2]
  inhibition of Lys-gingipain activity (in words): inhibited; also recorded: sensitivity

## O=C(O)CI [Iodoacetate]
[2]
  inhibition of Lys-gingipain activity (in words): inhibited; also recorded: sensitivity

## CC(=O)N[C@@H](CC(C)C)C(=O)N[C@@H](CC(C)C)C(=O)N[C@H](C=O)CCCNC(=N)N [Leupeptin]
[2]
  % Activity: 100%
  inhibition of Lys-gingipain activity (in words): failed to inhibit; also recorded: not sensitive to inhibition; also recorded: resistant to inhibition; also recorded: insensitive
[3]
  inhibition of Arg-gingipain (in words): effective inhibitors

## CCN1C(=O)C=CC1=O [N-Ethylmaleimide]
[2]
  inhibition of Lys-gingipain activity (in words): inhibited

## CN1C(=O)C=CC1=O [N-methylmaleimide]
[2]
  inhibition of Lys-gingipain activity (in words): sensitivity

## Cc1ccc(S(=O)(=O)NCC(=O)N2CCC[C@H]2C(=O)N[C@@H](CCCCN)C(=O)Nc2ccc([N+](=O)[O-])cc2)cc1 [N-p-tosyl-Gly--Pro--Lys--pNa, N-p-tosyl-Gly-Pro-Lys-pNa] (Tos-Gly-Pro-Lys-pNA)
[5]
  Vmax: 215 mmol/min
  ranking as substrate by ratio Vmax/Km: best substrate

## O=S(=O)(F)Cc1ccccc1 [Phenylmethylsulfonyl fluoride]
[2]
  % Activity: 100%
  inhibition of Lys-gingipain activity (in words): not sensitive to inhibition; also recorded: resistant to inhibition

## Cc1ccc(S(=O)(=O)N[C@@H](CCCCN)C(=O)CCl)cc1 [TLCK, tosyl-L-lysine chloromethyl ketone]
[2]
  % Activity: 0%
  inhibition of Lys-gingipain activity (in words): effective inhibitors of both enzymes; also recorded: sensitivity
[3]
  inhibition of Arg-gingipain (in words): effective inhibitors of both enzymes
[6]
  Hemagglutinating Titer of Gingipain-1 with effector: NHA
  effect on the hemagglutinating activity of purified fractions (in words): neither did treatment by the irreversible proteinase inhibitor TLCK

## NCCCC[C@H](NC(=O)OCc1ccccc1)C(=O)Nc1ccc([N+](=O)[O-])cc1 [Z--L--Lys--pNa, Z-L-Lysine-p-Nitroanilide]
[5]
  Vmax: 40 mmol/min

## [Cl-].[Cl-].[Zn+2] [ZnCl2]
[2]
  inhibition of Lys-gingipain activity (in words): failed to inhibit
[3]
  inhibition of Arg-gingipain (in words): effective inhibitors

## N=C(N)NCCC[C@H](N)C(=O)O [arginine]
[6]
  Hemagglutinating Titer of Culture fluid with effector: NHA
  Hemagglutinating Titer of Gingipain-1 with effector: NHA
  Hemagglutinating Titer of HGP with effector: NHA
  Hemagglutinating Titer of Lys-gingipain with effector: NHA
  effect on the hemagglutinating activity of purified fractions (in words): inhibited by arginine

## N[C@@H](CS)C(=O)O [cysteine]
[7]
  concentration required for full activity: 50 mM
  effect on enzyme: denatured
  effectiveness as reducing agent for activation of the enzyme: most effective reducing agent
  time after which activity could be detected: 30 s
  time to full activation: 5 min
[6]
  Hemagglutinating Titer of Gingipain-1 with effector: NHA
  effect on the hemagglutinating activity of purified fractions (in words): no effect

## NCCCC[C@H](N)C(=O)O [lysine]
[6]
  Hemagglutinating Titer of Gingipain-1 with effector: NHA

## N=C(N)c1ccc(N)cc1 [p-Aminobenzamidine]
[2]
  % Activity: 100%
  inhibition of Lys-gingipain activity (in words): failed to inhibit
[3]
  inhibition of Arg-gingipain (in words): effective inhibitors

## MAP-attached peptide: first 15 N-Terminal amino acids of 60 kDa catalytic subunit attached to the multiple antigen peptide (MAP) resin (DVYTDHGDLYNTPVR; not fully specified)
[8]
  antibody response against the protein: quite low
[9]
  anti-peptide antibody titer: high

B1: soybean trypsin inhibitor: soybean trypsin inhibitor (protein, UniProt P01070 25-205, looked up)
Trypsin inhibitor A: DFVLDNEGNPLENGGTYYILSDITAFGGIRAAPTGNERCPLTVVQSRNELDKGIGTIISSPYRIRFIAEGHPLSLKFDSFAVIMLCVGIPTEWSVVEDLPEGPAVKIGENKDAMDGWFRLERVSDDEFNNYKLVFCPQQAEDDKCGDIGISIDHDDGTRRLVVSKNKPLVVQFQKLDKESL
[1]
  effect on VPE by Lys-gingipain complex-treated human plasma: inhibited
